Source: ChEMBL document CHEMBL4732094, “Synthesis of some new benzoxazole derivatives and investigation of their anticancer activities” (Eur J Med Chem, 2021)

Columns and labels:
[1] = tested on: NIH3T3; assay: Cytotoxicity against mouse NIH3T3 cells assessed as cell viability measured after 24 hrs by MTT assay; format: cell-based; details: NIH3T3, 24 h
[2] = Selectivity index, ratio of IC50 for cytotoxicity against mouse NIH3T3 cells to IC50 for cytotoxicity against human HT-29 cells; format: toxicity, cell-based; details: NIH3T3 cells versus HT-29 cells, read-out: Ratio IC50
[3] = Selectivity index, ratio of IC50 for cytotoxicity against mouse NIH3T3 cells to IC50 for cytotoxicity against human HepG2 cells; format: toxicity, cell-based; details: NIH3T3 cells versus HepG2 cells, read-out: Ratio IC50
[4] = tested on: A549; assay: Cytotoxicity against human A549 cells assessed as cell viability measured after 24 hrs by MTT assay; format: functional, cell-based; details: A549, 24 h
[5] = tested on: C6; assay: Cytotoxicity against rat C6 cells assessed as cell viability measured after 24 hrs by MTT assay; format: functional, cell-based; details: C6, 24 h
[6] = Selectivity index, ratio of IC50 for cytotoxicity against mouse NIH3T3 cells to IC50 for cytotoxicity against human A549 cells; format: toxicity, cell-based; details: NIH3T3 cells versus A549 cells, read-out: Ratio IC50
[7] = tested on: HepG2; assay: Cytotoxicity against human HepG2 cells assessed as cell viability measured after 24 hrs by MTT assay; format: functional, cell-based; details: HepG2, 24 h
[8] = Selectivity index, ratio of IC50 for cytotoxicity against mouse NIH3T3 cells to IC50 for cytotoxicity against human MCF7 cells; format: toxicity, cell-based; details: NIH3T3 cells versus MCF7 cells, read-out: Ratio IC50
[9] = Selectivity index, ratio of IC50 for cytotoxicity against mouse NIH3T3 cells to IC50 for cytotoxicity against rat C6 cells; format: toxicity, cell-based; details: NIH3T3 cells versus C6 cells, read-out: Ratio IC50
[10] = tested on: HT-29; assay: Cytotoxicity against human HT-29 cells assessed as cell viability measured after 24 hrs by MTT assay; format: functional, cell-based; details: HT-29, 24 h
[11] = tested on: MCF7; assay: Cytotoxicity against human MCF7 cells assessed as cell viability measured after 24 hrs by MTT assay; format: functional, cell-based; details: MCF7, 24 h
[12] = tested on: C6; assay: Inhibition of DNA synthesis in rat C6 cells assessed as reduction in cell proliferation measured after 24 to 48 hrs by BrdU proliferation assay; format: functional, cell-based; details: time 24-48 hrs
[13] = tested on: C6; assay: Induction of apoptosis in rat C6 cells assessed as apoptotic cells at IC50 concentration measured after 24 hrs by Annexin V-FITC/PI staining based flow cytometry method relative to control; format: functional
[14] = tested on: HepG2; assay: Inhibition of DNA synthesis in human HepG2 cells assessed as reduction in cell proliferation measured after 24 to 48 hrs by BrdU proliferation assay; format: functional, cell-based; details: time 24-48 hrs
[15] = tested on: HepG2; assay: Induction of apoptosis in human HepG2 cells assessed as early apoptotic cells at IC50 concentration measured after 24 hrs by Annexin V-FITC/PI staining based flow cytometry method (reference value: 0.9%); format: functional
[16] = tested on: HepG2; assay: Induction of apoptosis in human HepG2 cells assessed as late apoptotic cells at IC50 concentration measured after 24 hrs by Annexin V-FITC/PI staining based flow cytometry method (reference value: 8.7%); format: functional
[17] = tested on: HepG2; assay: Induction of apoptosis in human HepG2 cells assessed as viable cells at IC50 concentration measured after 24 hrs by Annexin V-FITC/PI staining based flow cytometry method (reference value: 87.8%); format: functional
[18] = tested on: HepG2; assay: Induction of apoptosis in human HepG2 cells assessed as necrotic cells at IC50 concentration measured after 24 hrs by Annexin V-FITC/PI staining based flow cytometry method (reference value: 4.6%); format: functional

Compound	IC50 [1]	selectivity ratio [2]	selectivity ratio [3]	IC50 [4]	IC50 [5]	selectivity ratio [6]	IC50 [7]	selectivity ratio [8]	selectivity ratio [9]	IC50 [10]	IC50 [11]	inhibition [12]	Activity [13]	inhibition [14]	Activity [15]	Activity [16]	Activity [17]	Activity [18]
Cc1cc(-c2nc3cc(Cl)ccc3o2)ccc1NC(=O)CN1CCN(CCN(C)C)CC1	19.2 µM	1.45	4.95	24.4 µM	13.5 µM	0.79	3.88 µM	0.49	1.43	13.2 µM	39.3 µM							
CN(C)CCCN1CCN(CC(=O)Nc2ccc(-c3nc4cc(F)ccc4o3)cc2)CC1	21.9 µM	8.46	2.39	12.2 µM	27.5 µM	1.8	9.18 µM	1.49	0.8	2.59 µM	14.8 µM							
Cc1cc(-c2nc3cc(Cl)ccc3o2)ccc1NC(=O)CCl	8.64 µM	< 0.09	0.25	91.5 µM	> 100 µM	0.09	35 µM	< 0.09	< 0.09	> 100 µM	> 100 µM							
CN(C)CCCN1CCN(CC(=O)Nc2ccc(-c3nc4ccccc4o3)cc2)CC1	16.7 µM	1.57	1.76	18.3 µM	42.3 µM	0.91	9.5 µM	0.71	0.39	10.6 µM	23.4 µM							
Cc1cc(-c2nc3cc(Cl)ccc3o2)ccc1NC(=O)CN1CCN(CCCN(C)C)CC1	28.6 µM	3.12	2.56	10.5 µM	14.2 µM	2.73	11.2 µM	0.45	2.01	9.15 µM	63.4 µM							
Cc1cc(-c2nc3ccccc3o2)ccc1NC(=O)CCl	12.2 µM	0.88	0.82	33.5 µM	27.2 µM	0.36	14.8 µM	0.41	0.45	13.8 µM	29.8 µM							
O=C(CCl)Nc1ccc(-c2nc3cc(F)ccc3o2)cc1	9.19 µM	1.33	1.13	37.7 µM	2.99 µM	0.24	8.12 µM	2.82	3.07	6.93 µM	3.26 µM							
Cc1cc(-c2nc3cc(F)ccc3o2)ccc1NC(=O)CCl	10.5 µM	0.41	0.63	64.5 µM	> 100 µM	0.16	16.6 µM	< 0.11	< 0.11	25.4 µM	> 100 µM							
Cc1ccc2oc(-c3ccc(NC(=O)CCl)cc3)nc2c1	11.6 µM	0.76	0.54	36.1 µM	4.04 µM	0.32	21.5 µM	2.5	2.86	15.2 µM	4.62 µM							
Cc1cc(-c2nc3cc(F)ccc3o2)ccc1NC(=O)CN1CCN(CCN(C)C)CC1	62.1 µM	9.41	6.56	7.37 µM	10.7 µM	8.42	9.46 µM	5.96	5.8	6.6 µM	10.4 µM							
CN(C)CCN1CCN(CC(=O)Nc2ccc(-c3nc4cc(F)ccc4o3)cc2)CC1	72 µM	8.79	3.84	16.6 µM	4.39 µM	4.33	18.8 µM	3.46	16.4	8.19 µM	20.8 µM	Dose-dependent effect	46%					
CN(C)CCN1CCN(CC(=O)Nc2ccc(-c3nc4ccccc4o3)cc2)CC1	35.8 µM	6.74	2.2	18.7 µM	7.01 µM	1.92	16.3 µM	0.6	5.11	5.31 µM	59.4 µM							
Cc1ccc2oc(-c3ccc(NC(=O)CN4CCN(CCCN(C)C)CC4)c(C)c3)nc2c1	13.2 µM	1.04	2.34	15.3 µM	7.32 µM	0.87	5.65 µM	0.67	1.81	12.7 µM	19.8 µM							
Cc1ccc2oc(-c3ccc(NC(=O)CN4CCN(CCCN(C)C)CC4)cc3)nc2c1	26.4 µM	6.79	8.36	10.6 µM	1.81 µM	2.5	3.16 µM	1.38	14.6	3.89 µM	19.1 µM	Dose-dependent effect	14%					
Cc1cc(-c2nc3cc(F)ccc3o2)ccc1NC(=O)CN1CCN(CCCN(C)C)CC1	65.7 µM	9.8	9.19	12.2 µM	11.8 µM	5.39	7.15 µM	8.45	5.59	6.7 µM	7.77 µM							
Cc1cc(-c2nc3ccccc3o2)ccc1NC(=O)CN1CCN(CCN(C)C)CC1	63.5 µM	4.94	3.2	30.5 µM	42.7 µM	2.09	19.9 µM	1.53	1.49	12.9 µM	41.6 µM							
Cc1ccc2oc(-c3ccc(NC(=O)CN4CCN(CCN(C)C)CC4)c(C)c3)nc2c1	5.67 µM	0.78	0.44	11 µM	16.6 µM	0.51	12.8 µM	0.06	0.34	7.24 µM	90.3 µM							
Cc1ccc2oc(-c3ccc(NC(=O)CCl)c(C)c3)nc2c1	6.79 µM	0.49	0.12	61.8 µM	97.6 µM	0.11	54.8 µM	0.07	0.07	13.8 µM	96.5 µM							
Cc1cc(-c2nc3ccccc3o2)ccc1NC(=O)CN1CCN(CCCN(C)C)CC1	33.5 µM	2.17	15.5	22.1 µM	38.7 µM	1.52	2.16 µM	2.97	0.86	15.5 µM	11.3 µM			Dose-dependent effect	5%	16.7%	77.5%	0.8%
